According to US7998977B2, “Inhibitors of AKT (protein kinase B)” (Eli Lilly and Company, priority 2006, dated 2011):
Counter-ions that a name gives are not always drawn.

Columns and labels:
[1] = Effect of initial solution pH on rate of precipitation; type: physicochemical; conditions: room temperature
From the text: A pharmaceutical composition of 4-[5-(2-amino-ethanesulfonyl)-isoquinolin-7-yl]-phenol monohydrochloride hemihydrate comprises a non-reducing sugar and a pH adjusting agent. […] […]. Also, the rate at which precipitation takes place is pH dependent.

[2] = target: T1, Active human recombinant Akt1 (full-length) (Homo sapiens, UniProt P31749); test: Akt1 Phosphorylation Assay (competitive fluorescence polarization immunoassay, FPIA); type: biochemical; conditions: 20 μM ATP, 60 min at room temperature, n=3; read-out: IC50, inhibition of Akt1 phosphorylation
T1 construct: Active human recombinant Akt1 (full-length) purified from Sf9 insect cells; purchased Upstate Biotechnology, Inc; host or cells: Sf9 insect cells
From the text: Akt1 Phosphorylation Assay
The assay measures the phosphorylation of PKC alpha pseudo-substrate peptide by a Competitive Fluorescence Polarization Immunoassay (FPIA). The assay indirectly measures the concentration of phospho-peptide product formed in a reaction by measuring the change in the intensity of polarized light emitted from a fluorescently-labeled tracer peptide when displaced from a phospho-specific antibody by the phospho-peptide product. Calibration with a standard curve yields quantitative results.
Active human recombinant Akt1 (full-length) purified from Sf9 insect cells is obtained from Upstate Biotechnology, Inc. Peptide Substrate (M.W.1561) is purchased. […]
After 60 min at room temperature the reaction is terminated by adding 25 μL of Quench/Detection Mix containing 260 mM EDTA, 3.4 nM Fluorescein Tracer, and 7.5 nM Anti-Phosphoserine Antibody. The plates are incubated in darkness at room temperature for more than 3 hr, and then fluorescence polarization (at λex=485 nm, […]) is read using a Tecan Ultra plate reader. The concentration of phosphorylated product per well is calculated from millipolarization (mP) units using a prepared peptide competitor dilution series as a standard curve.

[3] = system: Phospho-GSK3b (pGSK3b), a target of Akt in cells; test: Cell-based ELISA (cELISA) for detection of phospho-GSK3b in U87MG cells; conditions: Homo sapiens, U-87 MG, 2 hr treatment, n=8, read-out: IC50, inhibition of pGSK3b
Experimental: Cell-Based ELISA (cELISA) for the Detection of Phospho-GSK3b (pGSK3b)
Exponentially grown U87MG cells derived from a human glioblastoma are seeded into 96-well plates and incubated overnight at 37° C. with 5% CO2. Ten concentrations of the compound of Example 1 are prepared from a 4 mM stock (in 100% DMSO) by 1:2 serial dilutions into the culture media. Equal volume of each of the serial dilutions is added directly to the cells. Treatment is stopped 2 hr later. At the end of the treatment, the culture media is removed, and the cells are washed once with ice-cold phosphate-buffered saline (PBS). The cells are fixed in PREFER according to vendor's procedure, followed by rinses in PBS/0.1% SDS and PBS/0.1% Triton X-100®, then overnight incubation in SEA Block Blocking buffer. The blocking step is followed by an overnight incubation of the cells with a rabbit antibody against pGSK3b/Ser9, followed by a goat anti-rabbit IgG. The pGSK3b is detected by SuperSignal ELISA Femto following the vendor's procedure.

Phospho-GSK3b (pGSK3b) = test: In vivo target inhibition by a single IV injection, U87MG tumors in nude mice; conditions: Mus musculus, U-87 MG, U87MG glioblastoma tumors, single IV injection of 25 mg/kg, at 1 hour, read-out: inhibition of pGSK3b in tumor
Experimental: In Vivo Target Inhibition Studies
In Vivo Target Inhibition by a Single IV Injection:
Exponentially growing U87MG cells derived from a human glioblastoma are implanted subcutaneously in the rear flank of nude mice. When the tumors reach the size of 200-250 mm^3, compounds are administered to the animals by a single IV injection in a dose-response study or in a time-course study. At the end of each treatment, animals are asphyxiated with CO2. Tumors are harvested by surgical excision, quickly frozen in liquid nitrogen and stored at −80° C. until analysis. Sera are prepared from blood harvested from the heart by cardiac puncture and stored at −80° C. until analysis.
The Akt inhibitor is extracted from serum with acetonitrite/methanol and analyzed alongside an internal standard by LC/MS/MS. Tumors are homogenized in 2 volumes of a lysis buffer containing 25 mM Tris (pH 7.5), Roche complete protease inhibitors, and 1 mM vanadate with Powergen 125 homogenizer, then sequentially passed thorough an 18 gauge needle and a 23 gauge needle. Soluble cytoplasmic extracts are collected from the supernatant fraction after the lysates are centrifuged for 30 minutes at 20,000×g. Protein concentrations in the cytoplasmic extracts are determined with a BCA kit. Phospho-GSK3b (pGSK3b) in the soluble extracts is analyzed with the ELISA Kit.

[4] = system: U87MG cells derived from a human glioblastoma; test: In vivo tumor growth inhibition, U87MG glioblastoma xenograft; parameters: species or system nude mice; conditions: continuous infusion of 27 mg/kg/day for 4 days, measured at the end of the assay
Experimental: (§1) In Vivo Tumor Growth Inhibition Studies
(§2) Exponentially growing U87MG cells derived from a human glioblastoma or H1155 cells derived from human non-small cell lung cancer are implanted subcutaneously in the rear flank of nude mice. Three days after tumor cell implants, microsurgery is performed to cannulate catheter for continuous infusion via jugular vein. Example 1, formulated in D5W (5% dextrose in water) at various concentrations, is then infused into mice next day at 40 μL/hr for 4 days. Tumors are measured twice weekly until the study is terminated, usually at 24 days after the initial implants. Tumor growth inhibition is calculated by dividing the average tumor volume of the treated group by that of the vehicle-treated group.

[5] = system: H1155 cells derived from human non-small cell lung cancer; test: In vivo tumor growth inhibition, H1155 non-small cell lung cancer xenograft; parameters: species or system nude mice; conditions: continuous infusion of 24 mg/kg/day for 4 days, measured at the end of the assay
Experimental: as §1, §2

T1 sequence (P31749 whole entry): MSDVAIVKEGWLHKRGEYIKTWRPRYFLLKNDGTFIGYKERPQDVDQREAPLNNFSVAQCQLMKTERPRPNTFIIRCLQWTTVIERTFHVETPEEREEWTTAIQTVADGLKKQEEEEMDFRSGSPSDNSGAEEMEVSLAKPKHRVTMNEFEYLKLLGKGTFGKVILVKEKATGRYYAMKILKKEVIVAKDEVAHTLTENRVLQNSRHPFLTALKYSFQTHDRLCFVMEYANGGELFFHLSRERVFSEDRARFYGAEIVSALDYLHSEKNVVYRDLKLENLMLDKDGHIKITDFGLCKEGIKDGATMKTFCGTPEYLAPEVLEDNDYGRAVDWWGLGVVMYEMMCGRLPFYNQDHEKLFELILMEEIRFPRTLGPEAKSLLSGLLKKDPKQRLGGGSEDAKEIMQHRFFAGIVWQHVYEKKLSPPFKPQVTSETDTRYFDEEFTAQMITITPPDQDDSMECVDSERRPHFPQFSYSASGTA

SMILES	Precipitation (ppt) ([1]; 0.001 N HCl/3% mannitol, initial pH 4.20, approx. 15 mg/mL)	Precipitation (ppt) ([1]; 0.0025 N HCl/3% mannitol, initial pH 3.91, approx. 15 mg/mL)	Precipitation (ppt) ([1]; 0.005 N HCl/3% mannitol, initial pH 3.58, approx. 15 mg/mL)	Precipitation (ppt) ([1]; 0.01 N HCl/3% mannitol, initial pH 3.19, approx. 15 mg/mL)	Precipitation (ppt) ([1]; 0.05 N HCl/3% mannitol, initial pH 1.68, approx. 15 mg/mL)	IC50 [2]	IC50 [3]	inhibition at 25 mg/kg (Phospho-GSK3b (pGSK3b))	tumor growth inhibition [4]	tumor growth inhibition [5]
Cl.Cl.NCCS(=O)(=O)c1cc(-c2ccc(O)cc2)cc2cnccc12.NCCS(=O)(=O)c1cc(-c2ccc(O)cc2)cc2cnccc12.O [4-[5-(2-Amino-ethanesulfonyl)-isoquinolin-7-yl]-phenol Monohydrochloride Hemihydrate]	ppt after 24 hr	ppt after 36 hr	ppt after 48 hr	no ppt up to 96 hours	no ppt up to 96 hours					
NCCS(=O)(=O)c1cc(-c2ccc(O)cc2)cc2cnccc12 [Example 1, 4-[5-(2-Amino-ethanesulfonyl)-isoquinolin-7-yl]-phenol di-hydrochloride Salt]						0.045 µM	2.04 µM	76%	50%	63%
